Data reported in ChEMBL document CHEMBL2401677, “2-Aminothiazole based P2Y(1) antagonists as novel antiplatelet agents” (Bioorg Med Chem Lett, 2013).

Key:
[1] = Antiplatelet activity in human platelet rich plasma assessed as inhibition of ADP-induced platelet aggregation at 10 uM relative to control; assay type: functional
P2Y purinoceptor 1 = P2Y purinoceptor 1 (Homo sapiens, UniProt P47900); assay: Displacement of [beta-33P]-2MeS-ADP from human P2Y1 receptor expressed in HEK293 cells after 1 hr by scintillation counting analysis; assay type: cell-based
P2Y purinoceptor 1, sequence (P47900 whole entry): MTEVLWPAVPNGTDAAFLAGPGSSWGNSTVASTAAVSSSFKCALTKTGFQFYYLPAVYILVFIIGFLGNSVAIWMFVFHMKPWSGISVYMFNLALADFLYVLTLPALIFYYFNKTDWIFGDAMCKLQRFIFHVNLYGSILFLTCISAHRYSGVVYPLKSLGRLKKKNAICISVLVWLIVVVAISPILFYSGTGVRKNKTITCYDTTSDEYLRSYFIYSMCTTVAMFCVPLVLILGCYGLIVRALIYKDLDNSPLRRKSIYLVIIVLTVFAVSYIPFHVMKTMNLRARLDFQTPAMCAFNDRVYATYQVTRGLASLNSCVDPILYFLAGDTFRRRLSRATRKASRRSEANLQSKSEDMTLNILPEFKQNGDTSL

[2] = Oral bioavailability in rat; assay type: ADME, organism-based; conditions: in vivo
[3] = Antiplatelet activity in human platelet rich plasma assessed as inhibition of ADP-induced platelet aggregation; assay type: functional
[4] = Protein binding in human serum; assay type: ADME, cell-free; conditions: read-out: PB
[5] = Clearance in rat at 5 mg/kg, iv; assay type: ADME, organism-based; parameters: dose 5 mg/kg, route intravenous; conditions: in vivo

Ki (P2Y purinoceptor 1)	bioavailability [2]	IC50 [3]	fraction unbound [4]	clearance [5]	Compound	inhibition at 10 µM [1]
8 nM	–	–	–	–	COc1ccc(-c2sc(Nc3cccnc3Oc3ccccc3C(C)(C)C)nc2C(F)(F)F)cc1	30%
21 nM	–	–	–	–	CC(C)(C)c1ccccc1Oc1ncccc1Nc1nc(C(F)(F)F)c(C#N)s1	101%
–	–	–	–	–	CC(C)(C)c1ccccc1Oc1ncccc1Nc1ncc(-c2ccccc2)s1	87%
186 nM	–	–	–	–	CN(C)C(=O)c1nc(Nc2cccnc2Oc2ccccc2C(C)(C)C)sc1-c1ccccc1	100%
8 nM	–	–	–	–	Cc1ccc(-c2sc(Nc3cccnc3Oc3ccccc3C(C)(C)C)nc2C(F)(F)F)cc1	32%
11 nM	–	–	–	–	Cc1ccccc1-c1sc(Nc2cccnc2Oc2ccccc2C(C)(C)C)nc1C(F)(F)F	54%
12 nM	27%	5200 nM	0.001	6.7 mL/min/kg	CN(C)CC(C)(C)COc1cccc(-c2sc(Nc3cccnc3Oc3ccccc3C(C)(C)C)nc2C(F)(F)F)c1	17%
7 nM	–	–	–	–	CC(C)(C)c1ccccc1Oc1ncccc1Nc1nc(C(F)(F)F)c(-c2ccccc2F)s1	41%
12 nM	–	–	–	–	CCc1nc(Nc2cccnc2Oc2ccccc2C(C)(C)C)sc1-c1ccccc1	78%
7 nM	–	12000 nM	–	–	CC(C)(C)c1ccccc1Oc1ncccc1Nc1nc(C(F)(F)F)c(-c2ccccc2)s1	61%
8 nM	–	–	–	–	COc1cccc(-c2sc(Nc3cccnc3Oc3ccccc3C(C)(C)C)nc2C(F)(F)F)c1	41%
12 nM	–	–	–	–	CC(C)(C)c1ccccc1Oc1ncccc1Nc1nc(C(F)(F)F)c(-c2ccc(OC(F)(F)F)cc2)s1	85%
435 nM	–	–	–	–	CC(C)(C)c1ccccc1Oc1ncccc1Nc1nc(C(F)(F)F)c(-c2ccccc2O)s1	99%
31 nM	–	–	–	–	CC(C)(C)c1ccccc1Oc1ncccc1Nc1nc(C(C)(C)C)c(-c2ccccc2)s1	86%
195 nM	–	–	–	–	CC(C)(C)c1ccccc1Oc1ncccc1Nc1nc(C(F)(F)F)c(-c2cccc(O)c2)s1	98%
4850 nM	–	–	–	–	CC(C)(C)c1ccccc1Oc1ncccc1Nc1nc(C(F)(F)F)c(C(N)=O)s1	–
13 nM	–	–	–	–	CC(C)(C)c1ccccc1Oc1ncccc1Nc1nc(C(F)(F)F)c(-c2ccc(C#N)cc2)s1	79%
6 nM	–	–	–	–	Cc1noc(-c2sc(Nc3cccnc3Oc3ccccc3C(C)(C)C)nc2C(F)(F)F)n1	56%
207 nM	–	–	–	–	CC(C)(C)c1ccccc1Oc1ncccc1Nc1nc(C(C)(C)CC(=O)O)c(-c2ccccc2)s1	89%
5 nM	–	–	–	–	CCOC(=O)c1sc(Nc2cccnc2Oc2ccccc2C(C)(C)C)nc1C(F)(F)F	50%
11 nM	–	–	–	–	Cc1sc(Nc2cccnc2Oc2ccccc2C(C)(C)C)nc1C(F)(F)F	96%
